The text below walks through data of DBAASP.

The structures appear in SMILES notation. In brackets after ≈: the same amount, converted by molar mass.

Among the test systems are Leuconostoc lactis; Pasteurella multocida; Streptococcus uberis; Escherichia coli; Listeria innocua; Micrococcus luteus; Enterococcus faecalis; Bacillus cereus; Staphylococcus aureus; Bacillus cereus AS1.126; Escherichia coli AS1.349; Pseudomonas putida; Salmonella typhimurium; Bacillus subtilis; Cryptococcus neoformans; Candida albicans; Saccharomyces cerevisiae; Streptococcus pneumoniae; Serratia marcescens; Streptococcus mutans.

Common to all, as to test: ≥ marks a high value that may be exact or a test limit, other limits are often not marked, values filed in µg/mL are converted to µM
For experiment [1], the system named is Staphylococcus aureus IFO 12732.
Experiment [2] concerns Pseudomonas aeruginosa IFO 12582.
Experiment [3] concerns Escherichia coli IFO 12734.
In experiment [4] the test system is Bacillus subtilis IFO 3134.
The test system of experiment [5] is Staphylococcus epidermidis.
In experiment [6] the test system is Escherichia coli ATCC 25922.
Experiment [7] has as its system Staphylococcus aureus ATCC 43300.
Experiment [8] deals with Staphylococcus aureus ATCC 25923.
The test system of experiment [9] is Staphylococcus aureus CUN 3792-99.
Experiment [10] concerns Bordetella bronchiseptica CUN 11844-99.
For experiment [11], the system named is Pseudomonas aeruginosa CUN 4158-02.
In experiment [12] the test system is Pseudomonas aeruginosa ATCC 27853.
Experiment [13] deals with Stenotrophomonas maltophilia CUN 3998-00.
For experiment [14], the system named is Acinetobacter baumannii ATCC 19606.
Experiment [15] relates to Enterococcus faecalis CGMCC 1.595.
Experiment [16] has as its system Lactococcus lactis AS1.1690.
Experiment [17] relates to Pseudomonas aeruginosa CGMCC 1.860.
For experiment [18], the system named is Klebsiella aerogenes CGMCC 1.876.
Experiment [19] has as its system Staphylococcus aureus AS1.72.
Experiment [20] relates to Klebsiella pneumoniae subsp. pneumoniae CGMCC 1.176.
In experiment [21] the test system is Enterobacter cloacae CGMCC 1.58.
Experiment [22] has as its system Enterococcus faecium CGMCC 1.2334.

As usually defined, the MIC is the lowest concentration found to suppress growth. A low value points to a more susceptible organism. For `CC[C@H](C)[C@H](NC(=O)[C@H](C)NC(=O)[C@@H]1CCCN1C(=O)[C@@H](NC(=O)[C@@H](NC(=O)[C@H](Cc1cnc[nH]1)NC(=O)[C@H](C)NC(=O)[C@H](C)NC(=O)[C@@H](NC(=O)[C@H](CCCCN)NC(=O)[C@H](C)NC(=O)[C@H](CC(C)C)NC(=O)[C@@H](NC(=O)CNC(=O)[C@@H](N)Cc1ccccc1)C(C)C)C(C)C)C(C)C)C(C)C)C(=O)N[C@@H](C)C(=O)N[C@@H](CCC(=O)O)C(=O)N[C@@H](Cc1cnc[nH]1)C(=O)N[C@@H](Cc1ccccc1)C(N)=O` [FGVLAKVAAHVVPAIAEHF], the minimum inhibitory concentration (MIC) is no less than 64 µM in experiment [1]; no less than 50.6 µM against Leuconostoc lactis; no less than 50.6 µM in the experiment on Pasteurella multocida; no less than 64 µM in experiment [2]; no less than 50.6 µM in the experiment with Streptococcus uberis; greater than 50.6 µM against Escherichia coli. Also, the MIC in experiment [3] was no less than 64 µM; in the experiment on Listeria innocua it was no less than 50.6 µM; with Micrococcus luteus, no less than 50.6 µM; with Enterococcus faecalis, no less than 50.6 µM; against Bacillus cereus it was no less than 50.6 µM; in experiment [4], no less than 64 µM. The compound also gave an MIC in experiment [5] of no less than 50.6 µM.

For the compound `CC(C)C[C@H](NC(=O)[C@H](Cc1c[nH]c2ccccc12)NC(=O)[C@H](CC(C)C)NC(=O)[C@H](CCCCN)NC(=O)[C@H](CCC(N)=O)NC(=O)[C@H](CCCCN)NC(=O)[C@H](CS)NC(=O)[C@H](CCCCN)NC(=O)[C@H](CC(C)C)NC(=O)[C@H](CCCCN)NC(=O)[C@H](Cc1ccccc1)NC(=O)[C@H](CCCNC(=N)N)NC(=O)[C@H](CCCNC(=N)N)NC(=O)[C@H](Cc1ccccc1)NC(=O)[C@H](CCCCN)NC(=O)[C@H](CCCCN)NC(=O)[C@H](CS)NC(=O)CN)C(=O)N[C@@H](Cc1c[nH]c2ccccc12)C(=O)N[C@@H](CS)C(=O)NCC(=O)O` [GCKKFRRFKLKCKQKLWLWCG], the minimal inhibitory concentration (MIC) in experiment [6] was 385 µM (≈ 1020 µg/mL); in experiment [7], 24.1 µM (≈ 64 µg/mL); in [8], 385 µM (≈ 1020 µg/mL); in experiment [9], 12 µM (≈ 32 µg/mL); in experiment [10], 6.02 µM (≈ 16 µg/mL); in [11], no less than 96.3 µM. In addition, the MIC in experiment [12] is 96.3 µM (≈ 256 µg/mL); in experiment [13], no less than 385 µM; in [14], 24.1 µM (≈ 64 µg/mL).

As to `NCCCC[C@H](NC(=O)CNC(=O)[C@H](CCCCN)NC(=O)[C@H](Cc1ccccc1)NC(=O)[C@H](CCCCN)NC(=O)[C@H](Cc1c[nH]c2ccccc12)NC(=O)[C@H](CCCN=C(N)N)NC(=O)[C@H](Cc1ccccc1)NC(=O)[C@H](CCCN=C(N)N)NC(=O)[C@H](CCCN=C(N)N)NC(=O)[C@H](Cc1ccc(O)cc1)NC(=O)[C@H](CCCCN)NC(=O)[C@H](CCCCN)NC(=O)[C@H](CS)NC(=O)CN)C(=O)N[C@@H](Cc1ccccc1)C(=O)N[C@@H](Cc1c[nH]c2ccccc12)C(=O)N[C@@H](Cc1ccccc1)C(=O)N[C@@H](Cc1c[nH]c2ccccc12)C(=O)NCC(=O)NCC(N)=O` [GCKKYRRFRWKFKGKFWFWGG], the MIC is 46.2 µM (≈ 128 µg/mL) in experiment [6]; 46.2 µM (≈ 128 µg/mL) in experiment [7]; 46.2 µM (≈ 128 µg/mL) in [8]; no less than 370 µM in experiment [9]; 11.6 µM (≈ 32 µg/mL) in experiment [10]; no less than 92.4 µM in experiment [11]. Also, the MIC in [12] was 46.2 µM (≈ 128 µg/mL); in [13], no less than 185 µM; in experiment [14] it was 23.1 µM (≈ 64 µg/mL).

With `CC[C@H](C)[C@H](N=C(O)[C@H](C)N=C(O)[C@H](C)N=C(O)[C@@H](N=C(O)[C@@H](N=C(O)[C@H](Cc1cnc[nH]1)N=C(O)[C@H](C)N=C(O)[C@H](C)N=C(O)[C@@H](N=C(O)[C@H](CCCCN)N=C(O)[C@H](C)N=C(O)[C@H](CC(C)C)N=C(O)[C@@H](N=C(O)CN=C(O)[C@H](Cc1ccccc1)N=C(O)[C@H](CC(C)C)N=C(O)CN)C(C)C)C(C)C)C(C)C)C(C)C)C(O)=N[C@@H](C)C(O)=N[C@@H](CCC(=O)O)C(O)=N[C@@H](Cc1cnc[nH]1)C(O)=N[C@@H](Cc1ccccc1)C(=N)O` [GLFGVLAKVAAHVVAAIAEHF], the MIC in experiment [1] was 4 µM (≈ 8.48 µg/mL); with Leuconostoc lactis, 5.66 µM (≈ 12 µg/mL); in the experiment with Staphylococcus aureus, 33.3 µM (≈ 70.7 µg/mL); in the experiment on Pasteurella multocida, no less than 47.2 µM; in experiment [2] it was no less than 64 µM; in the experiment on Streptococcus uberis, 23.6 µM (≈ 50 µg/mL). Also, the MIC with Escherichia coli is greater than 47.2 µM; in experiment [3] it was no less than 64 µM; against Listeria innocua, no less than 47.2 µM; in the experiment with Micrococcus luteus, 23.6 µM (≈ 50 µg/mL); in the experiment on Enterococcus faecalis, no less than 47.2 µM; in the experiment on Bacillus cereus it was no less than 47.2 µM. For the same compound, the MIC was 8 µM (≈ 17 µg/mL) in experiment [4] and no less than 47.2 µM in experiment [5].

Regarding `CC[C@H](C)[C@H](N)C(=O)N[C@@H](CCCCN)C(=O)N[C@@H](CCCCN)C(=O)N[C@H](C(=O)N[C@@H](CC(C)C)C(=O)N[C@@H](CO)C(=O)N[C@@H](CCCCN)C(=O)N[C@H](C(=O)N[C@@H](CCCCN)C(=O)N[C@@H](CCCCN)C(=O)N[C@@H](CC(C)C)C(=O)N[C@@H](CC(C)C)C(N)=O)[C@@H](C)CC)[C@@H](C)CC` [IKKILSKIKKLL], the MIC with Bacillus cereus AS1.126 stood at 3.12 µM (≈ 4.44 µg/mL); in experiment [15], 6.25 µM (≈ 8.9 µg/mL); in experiment [16], 3.12 µM (≈ 4.44 µg/mL); in experiment [17], 3.12 µM (≈ 4.44 µg/mL); in experiment [18], 6.25 µM (≈ 8.9 µg/mL); in experiment [19], 3.12 µM (≈ 4.44 µg/mL). The MIC in [20] was 6.25 µM (≈ 8.9 µg/mL); in experiment [21], 6.25 µM (≈ 8.9 µg/mL); in experiment [22], 6.25 µM (≈ 8.9 µg/mL); in the experiment on Escherichia coli AS1.349, 3.12 µM (≈ 4.44 µg/mL).

Turning to `CC(C)C[C@H](NC(=O)[C@H](CC(C)C)NC(=O)[C@H](CCCN=C(N)N)NC(=O)[C@H](Cc1cnc[nH]1)NC(=O)[C@@H](NC(=O)[C@H](CCCN=C(N)N)NC(=O)CNC(=O)[C@@H](NC(=O)[C@@H]1CCCN1C(=O)[C@H](Cc1ccccc1)NC(=O)[C@H](CCC(N)=O)NC(=O)[C@H](CC(C)C)NC(=O)CNC(=O)[C@H](C)NC(=O)[C@@H](N)CCCN=C(N)N)C(C)C)C(C)C)C(=O)O` [RAGLQFPVGRVHRLL], the MIC in the experiment on Pseudomonas putida was no less than 37.2 µM; against Salmonella typhimurium, 18.6 µM (≈ 32 µg/mL); with Staphylococcus aureus, 74.5 µM (≈ 128 µg/mL); against Bacillus subtilis, no less than 37.2 µM; against Cryptococcus neoformans, no less than 74.5 µM; with Candida albicans it was greater than 149 µM. For the same compound, the MIC was no less than 149 µM in the experiment on Saccharomyces cerevisiae; 37.2 µM (≈ 64 µg/mL) against Escherichia coli; no less than 74.5 µM in the experiment on Streptococcus pneumoniae; no less than 37.2 µM against Serratia marcescens; no less than 37.2 µM in the experiment with Streptococcus mutans.
